Assay results taken from PMC7351765, “Gastrin releasing peptide receptor targeted nano-graphene oxide for near-infrared fluorescence imaging of oral squamous cell carcinoma” (Scientific Reports, 2020).

Key:
GRPR = biological target: T1, GRPR (Homo sapiens, UniProt P30550); assay: Immunofluorescence assay of paraffin tissue sections with the fluorescent probe; conditions: 4-µm paraffin sections, probe 10 min in the dark, ImageJ quantitation
T1 construct: The paraffin-embedded samples, obtained from the Department of Pathology, Stomatology Hospital of Shanxi Medical University, were cut into 4-µm slices; from tissue; host or cells: paraffin-embedded OSCC tissue and normal oral mucosa sections from patients
T1 sequence (P30550 whole entry): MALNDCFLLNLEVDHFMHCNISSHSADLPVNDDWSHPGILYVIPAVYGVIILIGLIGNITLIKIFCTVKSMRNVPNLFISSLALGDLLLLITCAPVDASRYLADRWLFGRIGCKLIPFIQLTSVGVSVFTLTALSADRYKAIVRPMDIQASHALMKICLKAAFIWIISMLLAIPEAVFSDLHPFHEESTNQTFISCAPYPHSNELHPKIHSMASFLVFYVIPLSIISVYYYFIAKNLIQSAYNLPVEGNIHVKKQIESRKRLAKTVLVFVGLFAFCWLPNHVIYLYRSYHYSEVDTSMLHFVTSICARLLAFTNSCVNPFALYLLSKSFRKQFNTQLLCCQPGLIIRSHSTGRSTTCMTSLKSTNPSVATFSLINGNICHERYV
Protocol: We analyzed the expression levels of GRPR in primary OSCC sections and the normal tissue sections using AF750-6Ahx-Sta-BBN immunofluorescence assay.
The paraffin-embedded samples, obtained from the Department of Pathology, Stomatology Hospital of Shanxi Medical University, were cut into 4-µm slices. Then tissue blocks were treated with xylene and dehydrated using a graded ethanol series. Following that, the sections were heated for antigen retrieval and incubated in 3% H2O2 to block endogenous peroxidase. The BSA was added and incubated at 37 °C for 30 min. After that, BSA was removed and AF750-6Ahx-Sta-BBN was added and incubated for 10 min in the dark. The slides were observed and imaged using an inverted Olympus fluorescence microscope (Olympus Corp., Osaka, Japan). Quantitative analysis of GRPR expression was performed using ImageJ (https://imagej.nih.gov/ij/). Each patient received written informed consent before the study.

HSC-3 cells [1] = assay: Internalization study, confocal laser scanning microscopy; assay type: cell-based, human; conditions: HSC-3, 50 nM probe, 4 h, DAPI nuclear stain
Protocol: (§1) The time-dependent experiment was carried out on HSC-3 cells for both AF750-6Ahx-Sta-BBN and NGO-BBN-AF750. […] With increase of incubation time, cells uptake increased, and at the first 15 min, we observed a rapid binding of up to 80%. […] The cell uptake was 83 ± 15% and 89 ± 29% (AF750-6Ahx-Sta-BBN) and 85 ± 15% and 96 ± 20% (NGO-BBN-AF750) at 30 min and 60 min, respectively. We further conducted confocal laser scanning microscope experiments to evaluate the internalization of AF750-6Ahx-Sta-BBN and NGO-BBN-AF750 into HSC-3 cells and HOK cells. Blue fluorescence (Excitation, 460 nm) was used to represent the nuclei of HSC-3 cells. Red (Excitation, 750 nm) channel represents the fluorescence signal of AF750. […] While AF750-6Ahx-Sta-BBN is a GRPR antagonist to the HSC-3, NGO-BBN-AF750 may be internalized into HSC-3 cells via the combined interaction of BBN binding and the endocytosis of the nanoparticle. Evaluating nanotoxicity of NGO-BBN-AF750 was a part of our experimental design.
HSC-3 cells were seeded into 3.5 cm^2 culture dish at a density of 2 × 10^6, next cells were incubated with AF750-6Ahx-Sta-BBN or NGO-AF750-BBN at 37 °C for 15, 30, 60 and 120 min, respectively. Then, cells were washed three times with chilled PBS and harvested for flow cytometry measurements. Experiments were performed three times. […]

HSC-3 cells [2] = assay: Time-dependent cell uptake, flow cytometry; assay type: cell-based, human; conditions: HSC-3, 2 × 10^6 cells, 37 °C, performed three times
Protocol: as §1
HSC-3 cells were seeded into 3.5 cm^2 culture dish at a density of 2 × 10^6, next cells were incubated with AF750-6Ahx-Sta-BBN or NGO-AF750-BBN at 37 °C for 15, 30, 60 and 120 min, respectively. Then, cells were washed three times with chilled PBS and harvested for flow cytometry measurements. Experiments were performed three times. For internalization studies, HSC-3 cells were cultured in 24-well plates at 2 × 10^4 cells/well and grown for 24 h. Next, the original medium was replaced with fresh medium containing 50 nM AF750-6Ahx-Sta-BBN or NGO-BBN-AF750. The cells were then incubated for 4 h. After washing the cells three times with PBS, 2.5% paraformaldehyde was used to fix the cells. Then DAPI (Excitation, […]) was used to stain the nuclei of the cells. Finally, the cells were visualized under OLYMPUS FV1200 confocal laser scanning microscope (Olympus, Osaka, Japan). In addition, HOK cells were used as a GRPR-negative control group and cultured with NGO-BBN-AF750, the above experiment was performed and compared to the HSC-3 cells.

GRPR on HSC-3 cells = biological target: T2, GRPR on HSC-3 cells (Homo sapiens, UniProt P30550); assay: Specificity binding (blocking) assay, NIR fluorescence microscopy; assay type: cell-based; conditions: 37 °C
T2 construct: endogenous in cells; host or cells: HSC-3 (human tongue squamous cell carcinoma)
T2 sequence (P30550 whole entry): as above
Protocol: The binding specificities of AF750-6Ahx-Sta-BBN were determined with HSC-3 cells of human oral tongue squamous cell carcinoma using previously described methods. […] To determine the binding affinity of AF750-6Ahx-Sta-BBN in HSC-3, cells were first incubated with BBN (1–14), then added increasing concentrations of AF750-6Ahx-Sta-BBN (0.005–50 nM). Cells were washed after 50 min incubation and examined by flow cytometry. The binding affinity to GRPR is shown in Fig. 7, and plotted as the fluorescence intensity as function of the AF750-6Ahx-Sta-BBN concentration (Fig. 7B).
Figure 6 The specificity binding assay of AF750-6Ahx-Sta-BBN to GRPR on HSC-3 cells at 37 °C. The scale bar is 30 μm.

[3] = tested on: GRPR overexpressed in a prostate cancer PC-3 cell line; conditions: cited from earlier work
Text: AF750-6Ahx-Sta-BBN is a GRPR antagonist peptide analog.

fluorescence intensity increase, OSCC tissue versus normal oral mucous tissue (GRPR): 2.5 fold
NIR fluorescence of cells, blocking group (GRPR on HSC-3 cells; HSC-3 cells incubated with excessive BBN (1–14) for 10 min before the probe): no fluorescence signal
NIR fluorescence of cells, uptake group (GRPR on HSC-3 cells; HSC-3 cells incubated with probe, no blocking): strong NIR fluorescence signals
Substance: -DPhe-Gln-Trp-Ala-Val-Gly-His-Sta-Leu-NH2 [AF750-6Ahx-Sta-BBN, GRPR-specific Alexa Fluor 750 labeled BBN antagonist peptide; Sta-BBN conjugated to AF750 via 6-aminohexanoic acid linker]
cellular localisation / internalization (HSC-3 cells [1]): observed on the membrane of HSC-3
binding in the first 15 min (HSC-3 cells [2]; 15 min): up to 80%
cell uptake at 30 min (HSC-3 cells [2]; 30 min): 83 ± 15%
cell uptake at 60 min (HSC-3 cells [2]; 60 min): 89 ± 29%
binding affinity and specificity to GRPR [3]: high binding affinity and specificity
